The test system of test [1] is adalimumab producing cell line 2. The test is described as follows: WCX-10 quantification of acidic species of adalimumab, bioreactor culture, cell line 2. The test is classed as cell-based. Conditions: Example 4; 0.15 g/l 2DDG; control 29.8%. The procedure:
Two adalimumab producing cell lines were employed in the studies covered here. Upon thaw, cells were cultured in their respective growth media in a combination of vented non-baffled shake flasks (Corning) on a shaker platform at 110 RPM (cell line 1) and 140 RPM (cell line 2) and 10 L or 20 L wave bags (GE). Cultures were propagated in a 35° C., 5% CO2 incubator for cell line 1 and 36° C., 5% CO2 incubator for cell line 2 to obtain the required number of cells to be able to initiate production stage cultures.
For the bioreactor (3 L Applikon) experiments (Examples 1, 2 and 3), 3 L, bioreactors (1.5 L working volume) were initiated at 35° C. (cell line 1) and 36° C. (cell line 2), 30% DO, 200 rpm, pH of 7.1. […]
This method is employed towards the quantification of the acidic species and other charge variants present in cell culture harvest samples. […]
Quantitation is based on the relative area percent of detected peaks. […]
(§1) The objective of this experiment was to further evaluate the control of MGO synthesis/MGO protein modification through reduced glucose consumption in a different cell line, Cell line 2. […] As described in Example 3, extracellular MGO quantification was performed for day 7, 8 and 9 for the samples below and percentage of acidic species were quantified using WCX-10 analysis post protein A of cell culture harvests.

The test system is the same in test [2]. Description: Extracellular MGO measurement in cell culture supernatant, cell line 2. Type of test: cell-based. As to conditions: Example 4; for MGO concentration level: 0.15 g/l 2DDG. The protocol:
About 20 ml of cell free supernatant were collected in some cases for measurement of extracellular MGO in the supernatant. For this, a 3,000 RPM 30 min centrifugation was performed to remove the cells.
Remove protein: After quick thawing covered with aluminum, cell culture samples (10 mL) were filtrated by a 3 kDa or 10 kDa membrane filter (Millipore, UFC900369) until the solution left inside the filter was around 1 mL, the flow through that was used for MGO analysis.
Derivative MGO: 750 uL of flow through, 75 uL of 1 M NaH2PO4 buffer (pH 8), 50 mM 1,2 diaminobenzene (Aldrich P/N: P23938), and 600 uL of MilliQ water were mixed well and incubated at 60° C. for 3 hours. After cooling down and centrifuging at 10000 rpm for 3 minutes, the sample solution was ready to be injected.
External Standards to Quantitate MGO: external standards were used to quantitate MGO in cell culture. Based on the following table, the standard solutions were prepared. The standard solutions were incubated at 60° C. for 3 hours. After cooling down, the standard solutions were analyzed to get an external standard curve. The concentration of MGO in culture was calculated based on the external standard curve. (MGO: CMP Biomedicals, P/N: 155558; GO: Fisher Scientifics, P/N: S25698). 10 mM and 1 mM MGO were diluted from the MGO and 1000 uM and 10 uM GO were diluted from the GO. The diluent was water.
HPLC Method: A reverse phase HPLC method was used for MGO analysis. The parameters are listed in the method information table and gradient table below.
The measured concentration based on external quantitation multiplied by two is the final MGO concentration.
as §1, with “2. There were two parts to this experiment. In one part, different levels of 2DDG were supplemented (0.05 g/l, 0.15 g/l) similar to the experimental design in Example 2. Prior to this experiment, a study was performed in shake flask culture to evaluate the dose effect of 2DDG on this cell line (data not shown). In the other part, different glucose profiles were maintained in the culture through the feedback control of glucose feed amounts.” for “2.”
The cells were grown to maximum viable cell densities (VCD) in the range of 10-12×10^6 cells/ml for the different conditions tested. […] Samples were then subsequently analyzed using Lys-C peptide mapping for quantification of MGO modification post protein A purification. […]

Each structure is given as a SMILES string.

Take `O=CC[C@@H](O)[C@H](O)[C@H](O)CO` [Test 2DDG, 2-Deoxy-D-Glucose]: the “percentage of acidic species” value in test [1] was 27.2%. In test [2] (0.05 g/l 2DDG, versus control), the MGO concentration profile result is “No significant difference”. Further, the MGO concentration level was 14 µM in test [2] (day 7, control 28 μM); 16 µM in test [2] (day 8, control 64 μM); 20 µM in test [2] (day not printed (third value, after day 7 and day 8), control 157 μM (day 9)).

The record behind these values is patent US20160115225A1, “Methods of Reducing Methylglyoxal (MGO) Modification of Recombinant Proteins in Cell Culture” (AbbVie Inc., priority 2014, published 2016).
